Measurements from ChEMBL document CHEMBL1201862, “PubChem BioAssay data set” (2004).
Blank lines part the entries; values can stand above or below the compound they belong to. Active and inactive are the calls of the source.

Experiments:
[1] = biological target: T1, Kappa-type opioid receptor (Homo sapiens, UniProt P41145); type: functional
[2] = biological target: T1, Kappa-type opioid receptor; test: KOR antagonists by imaging, SAR follow-up, image-based (AID 2348); type: functional
Mu-type opioid receptor [3] = biological target: T2, Mu-type opioid receptor (Homo sapiens, UniProt P35372); test: HTS Image-Based Screen for Agonists of the MOR Receptor. [Related pubchem assays (depositor defined):AID1777, AID1785, AID1786, AID2133]; type: functional
T2 sequence (P35372 whole entry): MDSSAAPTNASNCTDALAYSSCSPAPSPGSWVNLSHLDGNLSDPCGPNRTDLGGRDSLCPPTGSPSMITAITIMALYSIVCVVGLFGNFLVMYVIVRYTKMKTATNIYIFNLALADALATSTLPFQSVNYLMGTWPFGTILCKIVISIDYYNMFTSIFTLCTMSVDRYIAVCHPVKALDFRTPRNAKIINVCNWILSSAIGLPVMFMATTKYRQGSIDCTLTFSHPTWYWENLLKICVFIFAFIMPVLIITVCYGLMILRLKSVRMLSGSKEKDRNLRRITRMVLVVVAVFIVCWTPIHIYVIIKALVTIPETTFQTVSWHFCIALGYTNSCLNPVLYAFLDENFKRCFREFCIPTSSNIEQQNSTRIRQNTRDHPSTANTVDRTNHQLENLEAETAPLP

Mu-type opioid receptor [4] = biological target: T2, Mu-type opioid receptor; test: MOR antagonists, SAR follow-up, image-based (AID 2420); type: functional;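 also: compounds added before stimulation of receptor with agonist DAMGO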
[5] = biological target: T3, Delta-type opioid receptor (Homo sapiens, UniProt P41143); test: HTS Image-Based Screen for Antagonists of the DOR Receptor. [Related pubchem assays (depositor defined):AID1777, AID1785, AID1786, AID2133]; type: functional
T3 sequence (P41143 whole entry): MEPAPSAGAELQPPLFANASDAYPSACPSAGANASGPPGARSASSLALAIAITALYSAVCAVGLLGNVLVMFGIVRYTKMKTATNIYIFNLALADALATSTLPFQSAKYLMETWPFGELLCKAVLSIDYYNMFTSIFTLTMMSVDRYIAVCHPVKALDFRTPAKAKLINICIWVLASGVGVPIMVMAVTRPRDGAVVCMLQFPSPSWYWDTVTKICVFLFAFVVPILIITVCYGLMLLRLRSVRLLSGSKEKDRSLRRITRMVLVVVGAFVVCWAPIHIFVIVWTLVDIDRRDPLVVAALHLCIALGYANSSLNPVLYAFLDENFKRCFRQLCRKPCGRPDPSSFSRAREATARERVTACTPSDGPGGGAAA

[6] = biological target: T3, Delta-type opioid receptor; test: DOR antagonists, SAR follow-up, image-based (AID 2357); type: functional
[7] = biological target: T3, Delta-type opioid receptor; test: DOR agonists, SAR follow-up, image-based (AID 2370); type: functional
[8] = biological target: T1, Kappa-type opioid receptor; test: KOR agonist analogs, imaging readout, SAR follow-up, image-based (AID 2359); type: functional
[9] = biological target: T1, Kappa-type opioid receptor; type: functional; remark: listed apart in the source
[10] = biological target: T3, Delta-type opioid receptor; test: HTS Image-Based Screen for Agonists of the DOR Receptor. [Related pubchem assays (depositor defined):AID1777, AID1786, AID2133]; type: functional
Mu-type opioid receptor [11] = biological target: T2, Mu-type opioid receptor; test: MOR agonists by imaging, SAR follow-up, image-based (AID 2352); type: functional
[12] = biological target: T1, Kappa-type opioid receptor; test: SAR analysis of small molecule agonists of the kappa opioid receptor via a luminescent beta-arrestin assay. [Related pubchem assays (depositor defined):AID1777, AID1786, AID1966, AID2133, AID2136, AID2348, AID2352, AID2357, AID2359, AID2370, AID2420, AID2478, AID2491, AID2492, AID2493, AID2497, AID2498, AID2500, AID449737, AID488822, AID488842]; type: functional
[13] = biological target: Voltage-dependent T-type calcium channel subunit alpha-1H (Homo sapiens, UniProt O95180); test: Cav3.2 T-type channel blockers, cell-based, SynthLib3 library, HEK293 Cav3.2, fluorescence (AID 493041); type: functional
Sequence of Voltage-dependent T-type calcium channel subunit alpha-1H (O95180 whole entry): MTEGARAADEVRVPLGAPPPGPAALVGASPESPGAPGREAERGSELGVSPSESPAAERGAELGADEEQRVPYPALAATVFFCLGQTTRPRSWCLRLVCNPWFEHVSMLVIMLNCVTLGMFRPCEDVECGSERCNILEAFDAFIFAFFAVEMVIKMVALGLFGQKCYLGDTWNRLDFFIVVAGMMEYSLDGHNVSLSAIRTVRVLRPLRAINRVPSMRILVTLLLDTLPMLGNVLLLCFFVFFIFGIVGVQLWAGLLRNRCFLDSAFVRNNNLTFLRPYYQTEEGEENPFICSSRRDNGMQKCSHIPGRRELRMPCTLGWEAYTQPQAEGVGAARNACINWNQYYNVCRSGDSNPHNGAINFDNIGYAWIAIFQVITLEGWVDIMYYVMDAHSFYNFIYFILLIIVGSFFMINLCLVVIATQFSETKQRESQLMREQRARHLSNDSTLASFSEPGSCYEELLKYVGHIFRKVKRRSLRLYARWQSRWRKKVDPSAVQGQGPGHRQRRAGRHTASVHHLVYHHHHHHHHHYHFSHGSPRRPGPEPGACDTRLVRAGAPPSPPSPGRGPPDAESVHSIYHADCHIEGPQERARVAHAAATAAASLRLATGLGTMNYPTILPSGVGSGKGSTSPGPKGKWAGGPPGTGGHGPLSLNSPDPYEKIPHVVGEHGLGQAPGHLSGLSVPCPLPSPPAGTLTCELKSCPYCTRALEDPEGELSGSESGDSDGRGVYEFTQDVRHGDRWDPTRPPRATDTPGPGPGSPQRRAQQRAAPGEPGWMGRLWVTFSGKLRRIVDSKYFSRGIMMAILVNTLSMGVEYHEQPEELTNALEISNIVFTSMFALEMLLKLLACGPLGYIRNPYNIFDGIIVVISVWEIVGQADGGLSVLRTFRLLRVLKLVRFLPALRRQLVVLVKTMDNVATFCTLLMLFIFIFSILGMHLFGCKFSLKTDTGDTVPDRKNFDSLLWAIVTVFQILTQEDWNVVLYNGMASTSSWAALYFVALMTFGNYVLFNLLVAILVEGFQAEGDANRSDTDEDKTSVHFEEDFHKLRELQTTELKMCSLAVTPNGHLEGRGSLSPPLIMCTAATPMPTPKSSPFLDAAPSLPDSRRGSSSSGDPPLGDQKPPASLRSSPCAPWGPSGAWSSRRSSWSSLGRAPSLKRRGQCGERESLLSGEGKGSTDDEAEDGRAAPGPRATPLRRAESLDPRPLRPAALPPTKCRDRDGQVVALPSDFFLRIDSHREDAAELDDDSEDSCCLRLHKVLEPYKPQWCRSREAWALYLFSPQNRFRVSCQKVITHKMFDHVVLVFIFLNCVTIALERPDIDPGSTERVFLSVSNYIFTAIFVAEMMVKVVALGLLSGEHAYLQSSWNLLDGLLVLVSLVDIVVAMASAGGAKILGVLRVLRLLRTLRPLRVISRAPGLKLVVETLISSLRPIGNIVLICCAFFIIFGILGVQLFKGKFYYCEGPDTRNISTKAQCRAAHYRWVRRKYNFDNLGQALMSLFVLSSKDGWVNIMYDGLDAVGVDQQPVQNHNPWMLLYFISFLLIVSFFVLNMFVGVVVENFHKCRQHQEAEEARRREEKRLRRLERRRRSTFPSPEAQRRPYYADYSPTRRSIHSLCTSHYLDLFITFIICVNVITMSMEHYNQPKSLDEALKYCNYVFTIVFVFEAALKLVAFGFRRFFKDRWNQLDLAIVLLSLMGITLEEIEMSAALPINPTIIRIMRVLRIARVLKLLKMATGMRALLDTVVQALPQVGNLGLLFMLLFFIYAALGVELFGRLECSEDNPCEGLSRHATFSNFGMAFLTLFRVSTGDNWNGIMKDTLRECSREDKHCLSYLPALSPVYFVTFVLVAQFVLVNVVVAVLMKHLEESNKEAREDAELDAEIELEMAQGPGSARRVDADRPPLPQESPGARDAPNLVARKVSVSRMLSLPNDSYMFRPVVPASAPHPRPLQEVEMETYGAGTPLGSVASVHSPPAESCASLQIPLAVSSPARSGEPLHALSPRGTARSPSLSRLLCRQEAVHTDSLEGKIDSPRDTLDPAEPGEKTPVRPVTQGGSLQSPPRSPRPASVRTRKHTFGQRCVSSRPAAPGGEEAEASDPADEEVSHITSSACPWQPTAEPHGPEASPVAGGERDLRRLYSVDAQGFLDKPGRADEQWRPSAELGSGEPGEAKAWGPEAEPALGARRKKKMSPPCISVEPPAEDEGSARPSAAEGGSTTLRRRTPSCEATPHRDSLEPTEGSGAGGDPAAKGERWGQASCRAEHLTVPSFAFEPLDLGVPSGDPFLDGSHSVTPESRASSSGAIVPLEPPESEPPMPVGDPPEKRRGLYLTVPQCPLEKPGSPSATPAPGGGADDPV

INS1 = test: beta cell apoptosis inhibitors, cytokine rescue, dose response, luminescence, retest (AID 449756); type: functional, cell-based; conditions: Rattus norvegicus;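 also: cell death triggered by IL-1 beta plus TNF-alpha plus IFN-gamma mixture; protective hits raise ATP signal compared with cytokine alone wells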
[14] = biological target: G-protein coupled receptor 55 (Homo sapiens, UniProt Q9Y2T6); test: GPR55 antagonists, SAR follow-up, counter-screen for GPR35 antagonist project, imaging, image-based (AID 2397); type: functional
Sequence of G-protein coupled receptor 55 (Q9Y2T6 whole entry): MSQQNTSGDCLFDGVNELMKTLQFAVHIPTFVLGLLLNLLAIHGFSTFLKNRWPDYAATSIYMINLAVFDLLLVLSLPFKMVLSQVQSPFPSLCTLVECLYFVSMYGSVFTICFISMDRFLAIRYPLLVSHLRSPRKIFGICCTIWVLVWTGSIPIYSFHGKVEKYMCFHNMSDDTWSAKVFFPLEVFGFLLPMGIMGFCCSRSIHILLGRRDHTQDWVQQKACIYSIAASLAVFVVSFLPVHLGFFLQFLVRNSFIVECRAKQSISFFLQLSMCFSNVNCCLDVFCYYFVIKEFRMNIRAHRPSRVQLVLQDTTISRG

Troponin, cardiac muscle = Troponin, cardiac muscle (Homo sapiens, UniProt P19429+P45379+P63316); test: Fluorescence-based biochemical high throughput dose response assay for activators of the calcium sensitivity of cardiac Regulated Thin Filaments (RTF). [Related pubchem assays (depositor defined):AID493008, AID493018, AID504382, AID504383]; type: protein-complex assay
[15] = biological target: DNA dC->dU-editing enzyme APOBEC-3G (Homo sapiens, UniProt Q9HC16); type: functional;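 also: Dose-response counterscreen measuring inhibition of APOBEC3G DNA deaminase activity, run while confirming APOBEC3A inhibitors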
Sequence of DNA dC->dU-editing enzyme APOBEC-3G (Q9HC16 whole entry): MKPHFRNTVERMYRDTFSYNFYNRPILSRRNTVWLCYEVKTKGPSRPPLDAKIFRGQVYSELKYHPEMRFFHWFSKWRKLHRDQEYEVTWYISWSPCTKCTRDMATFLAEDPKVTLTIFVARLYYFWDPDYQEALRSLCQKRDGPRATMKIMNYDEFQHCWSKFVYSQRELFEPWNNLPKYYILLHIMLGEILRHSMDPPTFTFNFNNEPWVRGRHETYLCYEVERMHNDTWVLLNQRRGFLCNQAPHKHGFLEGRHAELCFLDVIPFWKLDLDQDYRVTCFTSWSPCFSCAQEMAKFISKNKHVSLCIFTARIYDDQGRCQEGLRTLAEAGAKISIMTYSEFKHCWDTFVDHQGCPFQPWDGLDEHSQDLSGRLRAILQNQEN

[16] = cytotoxicity toward NIH3T3 fibroblasts, dose response, counter-screen, cell-based, ATP luminescence, mouse fibroblasts (AID 2010); type: functional;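 also: cells exposed to compound for about 90 hours before reading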
[17] = biological target: G-protein coupled receptor 35 (Homo sapiens, UniProt Q9HC97); test: GPR35 antagonists blocking zaprinast-driven arrestin recruitment, primary screen, imaging, U2OS, beta-arrestin-GFP, zaprinast agonist (AID 2058); type: functional;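 also: antagonist potency meaning inhibition of agonist-induced arrestin redistribution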
Sequence of G-protein coupled receptor 35 (Q9HC97 whole entry): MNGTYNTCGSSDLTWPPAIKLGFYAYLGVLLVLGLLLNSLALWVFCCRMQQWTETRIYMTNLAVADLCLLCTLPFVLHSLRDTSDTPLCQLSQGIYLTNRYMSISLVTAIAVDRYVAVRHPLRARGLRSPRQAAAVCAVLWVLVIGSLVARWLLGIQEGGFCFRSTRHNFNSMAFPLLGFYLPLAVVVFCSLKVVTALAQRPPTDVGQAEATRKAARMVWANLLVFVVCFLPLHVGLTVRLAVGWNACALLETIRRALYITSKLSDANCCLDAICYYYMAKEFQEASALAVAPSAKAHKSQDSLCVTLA

[18] = biological target: DNA dC->dU-editing enzyme APOBEC-3A (Homo sapiens, UniProt P31941); test: Dose Response confirmation of small molecule APOBEC3A DNA Deaminase Inhibitors via a fluorescence-based single-stranded DNA deaminase assay. [Related pubchem assays (depositor defined):AID493011, AID493024]; type: functional
Sequence of DNA dC->dU-editing enzyme APOBEC-3A (P31941 whole entry): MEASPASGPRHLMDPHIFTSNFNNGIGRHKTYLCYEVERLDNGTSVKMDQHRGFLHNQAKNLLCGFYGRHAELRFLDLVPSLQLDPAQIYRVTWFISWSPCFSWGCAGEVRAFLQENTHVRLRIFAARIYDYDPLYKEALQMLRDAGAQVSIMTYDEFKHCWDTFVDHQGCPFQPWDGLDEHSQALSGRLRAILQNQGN

[19] = inhibitors of intracellular T. cruzi replication, confirmation, NIH3T3 host cells, beta-gal luminescence (AID 2044); type: functional, cell-based;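 also: intracellular parasites grown in NIH/3T3 mouse fibroblasts as host cells; luminescent beta-galactosidase reporter signal from transgenic T. cruzi replicating inside host cells; inhibitors lower the luminescence signal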

T1 sequence (P41145 whole entry): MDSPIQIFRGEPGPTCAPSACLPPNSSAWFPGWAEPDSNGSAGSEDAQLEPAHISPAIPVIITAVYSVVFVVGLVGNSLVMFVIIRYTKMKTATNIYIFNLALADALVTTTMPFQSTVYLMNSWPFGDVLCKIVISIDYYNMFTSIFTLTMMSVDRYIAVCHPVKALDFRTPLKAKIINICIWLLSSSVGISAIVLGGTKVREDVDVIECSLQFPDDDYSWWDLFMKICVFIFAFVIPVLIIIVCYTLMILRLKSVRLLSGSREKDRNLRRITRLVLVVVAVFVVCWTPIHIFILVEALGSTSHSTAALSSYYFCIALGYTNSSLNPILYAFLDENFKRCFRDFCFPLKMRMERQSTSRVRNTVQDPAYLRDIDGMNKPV

- EC50 [1]: 1.86 µM
- IC50 [2]: > 32 µM (inactive)
- EC50 (Mu-type opioid receptor [3]): > 32 µM (inactive)
- IC50 (Mu-type opioid receptor [4]): > 32 µM (inactive)
- IC50 [5]: > 32 µM (inactive)
- IC50 [6]: > 32 µM (inactive)
- EC50 [7]: > 32 µM (inactive)
- EC50 [8]: 0.806 µM (active)
- EC50 [9]: 2.13 µM
- EC50 [10]: > 32 µM (inactive)
- EC50 (Mu-type opioid receptor [11]): > 32 µM (inactive)
- EC50 [12]: 2.07 µM (active)
SMILES: CCC(C)(C(=O)NC1CCCC1)N(Cc1cccs1)C(=O)c1ccccn1 (stereo unspecified)

- EC50 [13]: 3 µM (active)
SMILES: O=C(NCC1[C@H]2CN(CC3CCCC3)C[C@@H]12)c1cc(Cl)cc(Cl)c1 (stereo partly specified)

SMILES: C=CCn1c(C)c(/C=C/c2cc[n+](C)cc2)c2ccccc21
- AC50 (INS1): 6.54 µM (active)
- IC50 [14]: 2.79 µM (active)
- EC50 (Troponin, cardiac muscle): 1.88 µM (active)
- IC50 [15]: 16.3 µM (active)
- EC50 [16]: > 60 µM (not active)
- IC50 [17]: 1.97 µM (active)
- IC50 [18]: > 100 µM (inactive)
- EC50 [19]: 0.69 µM (active)
